Reference: patent publication US5869336A, “Recombinant enzymatically active calpain expressed in a baculovirus system” (Cephalon, Inc., priority 1997, dated 1999)
Read-outs that look alike come from different tables or passages of the source. Where a SMILES comes first, the peptide text is derived from it. [ ]: non-standard residue; d: D form. The star is where a group is joined. Sta = CC(C)C[C@H](N)[C@@H](O)CC(=O)O; Isovaleryl = CC(C)CC(=O)*; Nle = CCCC[C@H](N)C(=O)O

Assays:
[1] = imidazole-HCl/EGTA buffer, pH 7.3; used for approximating [Ca2+]; read-out: Kd of EGTA for calcium; cited from earlier work
[2] = biological target: T1, native calpain I (Homo sapiens, UniProt P07384); assay: Inhibitor profile: inhibition of Succ-Leu-Tyr-MNA hydrolysis by native calpain I; format: biochemical; conditions: for difference in IC50 values with respect to the known calpain inhibitors / inhibition of activity: native enzyme
T1 construct: Native and recombinant enzymatically active calpain I were compared; from tissue; host or cells: human erythrocytes (red blood cells)
T1 sequence (P07384 2-714): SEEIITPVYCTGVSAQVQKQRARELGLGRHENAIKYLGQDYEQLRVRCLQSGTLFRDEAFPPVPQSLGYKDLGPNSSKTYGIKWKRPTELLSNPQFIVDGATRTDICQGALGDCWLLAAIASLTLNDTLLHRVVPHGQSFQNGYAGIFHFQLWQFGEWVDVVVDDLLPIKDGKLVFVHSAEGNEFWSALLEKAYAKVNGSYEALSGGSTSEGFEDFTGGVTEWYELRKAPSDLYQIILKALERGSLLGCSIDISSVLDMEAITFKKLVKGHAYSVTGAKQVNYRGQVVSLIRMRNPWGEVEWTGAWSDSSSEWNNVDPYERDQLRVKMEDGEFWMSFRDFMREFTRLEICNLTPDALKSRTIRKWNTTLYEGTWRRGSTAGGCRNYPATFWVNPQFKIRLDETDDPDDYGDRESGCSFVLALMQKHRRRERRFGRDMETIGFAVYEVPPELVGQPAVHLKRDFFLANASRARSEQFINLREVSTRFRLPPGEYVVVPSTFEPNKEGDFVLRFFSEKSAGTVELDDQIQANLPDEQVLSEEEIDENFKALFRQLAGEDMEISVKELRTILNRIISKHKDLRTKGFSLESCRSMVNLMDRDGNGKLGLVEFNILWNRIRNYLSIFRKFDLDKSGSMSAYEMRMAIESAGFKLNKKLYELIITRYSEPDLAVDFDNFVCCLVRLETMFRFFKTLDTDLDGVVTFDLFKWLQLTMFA
T1 sequence (P04632 1-268 partner): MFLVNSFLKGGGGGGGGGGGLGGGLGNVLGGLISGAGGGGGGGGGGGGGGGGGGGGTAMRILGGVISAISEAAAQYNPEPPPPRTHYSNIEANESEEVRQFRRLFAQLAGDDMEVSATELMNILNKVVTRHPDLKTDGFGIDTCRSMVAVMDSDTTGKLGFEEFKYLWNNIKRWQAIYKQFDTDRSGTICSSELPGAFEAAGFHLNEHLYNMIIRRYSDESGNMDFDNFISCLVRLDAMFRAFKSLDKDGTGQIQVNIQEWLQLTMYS
Description: (§1) To evaluate inhibitor sensitivities, stocks (40 times concentrated) of each inhibitor to be tested were prepared in 100% anhydrous DMSO and 5 μl of each inhibitor preparation were aliquoted into each of three wells of a 96 well plate. Dilutions of each enzyme preparation were made into assay buffer (i.e., 50 mM Tris, 50 mM NaCl, 1 mM EDTA, 1 mM EGTA, and 5 mM β-mercaptoethanol, pH 7.5 including 0.2 mM Succ-Leu-Tyr-MNA) and 175 μl of each dilution aliquoted into the same wells containing the independent inhibitor stocks as well as to positive control wells containing 5 μl DMSO, but no inhibitor. To start the reaction, 20 μl of 50 mM CaCl2 in assay buffer was added to all wells of the plate, excepting three, which were used as background signal baseline controls. Substrate hydrolysis was monitored every 5 minutes for a total of 30 minutes. […] The rate of hydrolysis was determined as the change in fluorescence units per the 10 minute time period between 5 and 15 minutes. At each inhibitor concentration tested, the percent inhibition was determined as the percent decrease in the rate of substrate hydrolysis in the presence of inhibitor versus the rate in its absence. […] Prototypic inhibitors of serine (PMSF) and aspartic proteases (pepstatin A) were also included in this determination.

[3] = biological target: T2, recombinant human calpain I (Homo sapiens, UniProt P07384); assay: Inhibitor profile: inhibition of Succ-Leu-Tyr-MNA hydrolysis by recombinant calpain I; format: biochemical; conditions: for difference in IC50 values with respect to the known calpain inhibitors / inhibition of activity: recombinant enzyme
T2 construct: the 2153 bp fragment containing the entire human 80 kDa calpain I cDNA; made in house; host or cells: Spodoptera frugiperda Sf21 cells, recombinant baculovirus (AcNPV-hCANPI-2-5, or coinfection with AcNPV-hCANP30-5 and AcNPV-hCANPI80-5)
T2 sequence (P07384 2-714): T1 sequence (P07384 2-714)
T2 sequence (P04632 1-268 partner): T1 sequence (P04632 1-268 partner)
Description: as §1

[4] = tested on: native human calpain I; assay: Calcium-dependent protease activity (Succ-Leu-Tyr-AMC), native calpain I; format: biochemical; conditions: 12.5 μM calpain inhibitor I; native human calpain I; FIG. 5a
Description: (§2) Sf21 cells were again seeded in 24 well plates at 1.5×10^5 cells/cm^2 and infected with either wild-type virus, coinfected with both AcNPV-hCANP30-5 and AcNPV-hCANPI80-5 (MOI of 5 for each virus), or infected with AcNPV-hCANPI-2-5 (MOI=5.7). The intracellular proteins were harvested at 40 hours after infection with 100 μl/well of the following lysis buffer: 50 mM Tris-HCl, pH 7.5, 50 mM NaCl, 1 mM EDTA, 1 mM EGTA, 5 mM β-mercaptoethanol, 0.1% Triton-100, followed by a 10 minutes centrifugation at 14,000×g at 4° C. to pellet the nuclei and some membranes. The in vitro enzyme activity of 20 μl of each extract (12.5-20 μg of total protein) was measured using the synthetic peptide substrate succinyl-leucine-tyrosine-aminomethyl coumarin (Succ-Leu-Tyr-AMC) at a 1 mM concentration with and without the addition of 5 mM CaCl2 following the procedure of Sasaki et al., J. Biol. Chem., 259:12489-12494 (1984), incorporated herein by reference. The activity obtained was compared with the enzyme activity of 2 μg of partially-purified native human calpain I produced according to the method of Siman et al., supra.
(§3) The activity in the presence of calcium was also measured with the addition of 12.5 μM calpain inhibitor I following the procedure disclosed in Sasaki et al., supra. The results are depicted in FIGS. 5a-d. In FIGS. 5a-d, open circles represent activity without calcium present. […]

[5] = biological target: T2, recombinant human calpain I; assay: Calcium-dependent protease activity (Succ-Leu-Tyr-AMC), recombinant calpain in Sf21 cell extracts; format: biochemical; conditions: 12.5 μM calpain inhibitor I; recombinant, coinfected or AcNPV-hCANPI-2-5; FIGS. 5c, 5d
Description: as §2, §3

[6] = tested on: recombinant 80 kDa subunit of calpain I; assay: Enzymatic activity of independently expressed 80 kDa subunit (Succ-Leu-Tyr-AMC); format: biochemical, human; conditions: 12.5 μM calpain inhibitor I; 33 μg unfractionated extract; FIG. 8
Description: as §2, with “The activity obtained was compared with the enzyme activity of 2 μg of partially-purified native human calpain I produced according to the method of Siman et al., supra.” left out
To determine the relative activity of the recombinantly produced 80 kDasubunit, the enzymatic activity of the subunit was examined in unfractionated extracts from Sf21 cells infected with AcNPV-hCANPI80-5. […] The same amount of enzyme activity for both the recombinant 80 kDa subunit and the recombinant calpain was then run on SDS-PAGE and the amount of each was qualitatively determined by immunoblot analysis as described in Example 4 above. […]

[7] = tested on: neurons; conditions: rats, clamping both carotid arteries and lowering arterial blood pressure; cited from earlier work
[8] = tested on: EAA-induced protein breakdown; conditions: in vivo; cited from earlier work
[9] = tested on: cells; conditions: cited from earlier work
[10] = tested on: vulnerable hippocampal neurons; conditions: in vivo; cited from earlier work
[11] = tested on: calpain; conditions: in vivo; cited from earlier work
[12] = tested on: rat Na,K-ATPase; conditions: enzyme from insect cells; cited from earlier work
[13] = tested on: native human calpain I; assay: Calcium activation of native calpain (Succ-Leu-Tyr-MNA hydrolysis); format: biochemical; conditions: pH 7.3, 1 mM Succ-Leu-Tyr-MNA, approximation based on Kd of EGTA, read-out: concentration of calcium required to give 1/2 Vmax
Description: (§4) To determine the calcium concentration required for enzyme activity, tests were performed essentially as described by Kitahara et al., J. Biochem., 95:1759-1766 (1984). First, enzyme preparations were dialyzed overnight against 110 mM imidazole-HCl/1 mM EGTA buffer at pH 7.3 containing 5 mM β-mercaptoethanol. Ten-fold concentrated Ca^2+ /EGTA buffers were prepared by adding varying amounts of CaCl2 to the imidazole/EGTA buffer. Twenty μl of each buffer was put into three wells of a 96 well plate. Dilutions of dialyzed enzyme were made into the imidazole/EGTA buffer containing 1 mM Succ-Leu-Tyr-MNA and 180 μl of each preparation were added to the wells containing the various Ca/EGTA buffers. Substrate hydrolysis was measured every 5 minutes for 30 minutes. The 1/2 Vmax was determined as the rate of substrate hydrolysis which was 50% of the maximal rate achieved in the presence of the varying amounts of calcium. […] The [Ca^2+ ] activation profiles for both the native and recombinant enzymes are virtually identical. In FIG. 9, open squares with interior open circles represent recombinant human calpain I (rhCANPI). Shaded squares with interior open circles represent native human calpain I (nhCANPI).

[14] = biological target: T2, recombinant human calpain I; assay: Calcium activation of recombinant calpain (Succ-Leu-Tyr-MNA hydrolysis); format: biochemical; conditions: pH 7.3, 1 mM Succ-Leu-Tyr-MNA, approximation based on Kd of EGTA, read-out: concentration of calcium required to give 1/2 Vmax
Description: as §4

[15] = Native calpain, 0.2 mM Succ-Leu-Tyr-MNA, rate between 5 and 15 minutes, read-out: IC50
[16] = Recombinant calpain, 0.2 mM Succ-Leu-Tyr-MNA, rate between 5 and 15 minutes, read-out: IC50

## O=C(O)CN(CCOCCOCCN(CC(=O)O)CC(=O)O)CC(=O)O [EGTA]
[1]
  Kd: 5.5 µM

## O=S(=O)(F)Cc1ccccc1 [PMSF, phenylmethylsulfonyl fluoride]
[2]
  IC50: > 1000 µM
  difference in IC50 values with respect to the known calpain inhibitors: 5-6 fold order of magnitude
  inhibition of activity: insignificant inhibition
[3]
  IC50: > 1000 µM
  difference in IC50 values with respect to the known calpain inhibitors: 5-6 fold order of magnitude
  inhibition of activity: insignificant inhibition

## CC(C)CC(=O)N[C@H](C(=O)N[C@H](C(=O)N[C@@H](CC(C)C)[C@@H](O)CC(=O)N[C@@H](C)C(=O)N[C@@H](CC(C)C)[C@@H](O)CC(=O)O)C(C)C)C(C)C [Pepstatin A] (Isovaleryl-VV[Sta]A[Sta]-OH)
[2]; [15]
  IC50: > 10 µM
[2]
  difference in IC50 values with respect to the known calpain inhibitors: 5-6 fold order of magnitude
  inhibition of activity: insignificant inhibition
[3]; [16]
  IC50: > 10 µM
[3]
  difference in IC50 values with respect to the known calpain inhibitors: 5-6 fold order of magnitude
  inhibition of activity: insignificant inhibition

## CC(C)C[C@H](NC(=O)OCc1ccccc1)C(=O)N[C@@H](CC(C)C)C(=O)N[C@@H](Cc1ccccc1)C(=O)C[S+](C)C [Z--Leu--Leu--Phe--CH2 S(+)Me2 Br(-), Z-Leu-Leu-Phe-CH2 S(+)Me2 Br(-)]
[2]; [15]
  IC50: 0.014 µM
[3]; [16]
  IC50: 0.008 µM

## CCCC[C@@H](C=O)NC(=O)[C@H](CC(C)C)NC(=O)OCc1ccccc1 [Z--Leu--Nle--H, Z-Leu-Nle-H]
[2]; [15]
  IC50: 0.014 µM
[3]; [16]
  IC50: 0.01 µM

## CCNC(=O)C(=O)[C@H](Cc1ccccc1)NC(=O)[C@H](CC(C)C)NC(=O)OCc1ccccc1 [Z--Leu--Phe--CONHEt, Z-Leu-Phe-CONHEt]
[2]
  IC50: 0.056 µM
[3]
  IC50: 0.034 µM

## CCCC[C@@H](C=O)NC(=O)[C@H](CC(C)C)NC(=O)[C@H](CC(C)C)NC(C)=O [calpain inhibitor I] (Ac-Leu-Leu-[Nle]-aldehyde)
[4]
  inhibition of calcium-dependent substrate hydrolysis: inhibited
[5]
  inhibition of calcium-dependent substrate hydrolysis: also inhibited
[6]
  inhibition of activity: completely inhibited
[7]
  protection of neurons against ischemic and hypoxic damage: protected neurons against ischemic and hypoxic damage

## CC(=O)N[C@@H](CC(C)C)C(=O)N[C@@H](CC(C)C)C(=O)N[C@H](C=O)CCCNC(=N)N [leupeptin]
[8]
  lowering EAA-induced protein breakdown: unsuccessful
[9]
  uptake by cells: failed to enter the cells
[7]
  protection of neurons against ischemic and hypoxic damage: protected neurons against ischemic and hypoxic damage
[10]
  protection against degeneration of hippocampal neurons after ischemia: protected against the degeneration of vulnerable hippocampal neurons after ischemia
[11]
  block of trauma-evoked calpain response: block a trauma-evoked calpain response in vivo

## Na,K-ATPase: functional rat Na,K-ATPase expressed using the baculovirus expression system
[12]
  activity relative to enzyme from dog kidney outer medulla: 20-25%

## calcium
[13]
  EC50: 15 µM
[14]
  EC50: 14 µM

## calpastatin
[9]
  uptake by cells: not readily taken up by cells
